Where “and” joins values, the source holds several entries; their conditions need not be identical. Equal entries are not always repeated. Toxic doses and inconclusive results are not listed.
System: CD2F1 mice, L1210 leukemia ip, survival T/C
Experiment: NCI In Vivo Anticancer Drug Screen. Data for tumor model L1210 Leukemia (intraperitoneal) in CD2F1 (CDF1) mice
Conditions: higher = longer survival
In short: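 Ratio T/C, where T is the treated-group value and C the vehicle-dosed control value, from mice implanted with a transplantable tumor.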

[1] = endpoint: mean survival time, dose: 100.0 mg/kg/injection, schedule: Q01DX009 (ip), vehicle: saline with Tween-80
[2] = endpoint: mean survival time, dose: 200.0 mg/kg/injection, schedule: Q01DX009 (ip), vehicle: saline with Tween-80
[3] = endpoint: mean survival time, dose: 50.0 mg/kg/injection, schedule: Q01DX001 (ip), vehicle: saline with Tween-80
[4] = endpoint: mean survival time, dose: 100.0 mg/kg/injection, schedule: Q01DX001 (ip), vehicle: saline with Tween-80
[5] = endpoint: mean survival time, dose: 400.0 mg/kg/injection, schedule: Q01DX009 (ip), vehicle: saline with Tween-80
[6] = endpoint: mean survival time, dose: 100.0 mg/kg/injection, schedule: Q04DX003 (ip), vehicle: saline with Tween-80
[7] = endpoint: mean survival time, dose: 200.0 mg/kg/injection, schedule: Q04DX003 (ip), vehicle: saline with Tween-80
[8] = endpoint: mean survival time, dose: 400.0 mg/kg/injection, schedule: Q04DX003 (ip), vehicle: saline with Tween-80
[9] = endpoint: mean survival time, dose: 0.78 mg/kg/injection, schedule: Q01DX009 (ip), vehicle: water
[10] = endpoint: mean survival time, dose: 1.56 mg/kg/injection, schedule: Q01DX009 (ip), vehicle: water
[11] = endpoint: mean survival time, dose: 3.13 mg/kg/injection, schedule: Q01DX009 (ip), vehicle: water
[12] = endpoint: mean survival time, dose: 6.25 mg/kg/injection, schedule: Q01DX009 (ip), vehicle: water
[13] = endpoint: mean survival time, dose: 12.5 mg/kg/injection, schedule: Q01DX009 (ip), vehicle: water
[14] = endpoint: mean survival time, dose: 200.0 mg/kg/injection, schedule: Q01DX001 (ip), vehicle: saline with Tween-80
[15] = endpoint: mean survival time, dose: 100.0 mg/kg/injection, schedule: Q04DX002 (ip), vehicle: saline
[16] = endpoint: mean survival time, dose: 200.0 mg/kg/injection, schedule: Q04DX002 (ip), vehicle: saline

For CCCCOS(=O)(=O)c1ccc(C)cc1, the T/C (endpoint: mean survival time, dose: 100.0 mg/kg/injection, schedule: Q04DX002 (ip), vehicle: Klucel (hydroxypropylcellulose) (HPC)) was 93 % of control, the T/C (endpoint: mean survival time, dose: 200.0 mg/kg/injection, schedule: Q04DX002 (ip), vehicle: Klucel (hydroxypropylcellulose) (HPC)) was 101 % of control and the T/C (endpoint: mean survival time, dose: 400.0 mg/kg/injection, schedule: Q04DX002 (ip), vehicle: Klucel (hydroxypropylcellulose) (HPC)) was 90 % of control.

In the case of NC(N)=Nc1ccc(C(=O)Oc2ccc([N+](=O)[O-])cc2)cc1, the T/C [1] is reported as 112 % of control and the T/C [2] is reported as 102 % of control.

CCCCCC1SC1CC1SC1CCCCCCCC(=O)N(CCCC)CCCC (centres undefined) was tested, and the T/C (endpoint: mean survival time, dose: 75.0 mg/kg/injection, schedule: Q04DX003 (ip), vehicle: saline) was 98 % of control, the T/C (endpoint: mean survival time, dose: 150.0 mg/kg/injection, schedule: Q04DX003 (ip), vehicle: saline) was 107 % of control and the T/C (endpoint: mean survival time, dose: 300.0 mg/kg/injection, schedule: Q04DX003 (ip), vehicle: saline) was 97 % of control.

With CN(C)/C=C1\Cc2ccccc2C1=O the T/C (endpoint: mean survival time, dose: 25.0 mg/kg/injection, schedule: Q01DX001 (ip), vehicle: saline with Tween-80) was 95 % of control, the T/C [3] was 92 % of control and the T/C [4] was 90 % of control.

COC(=O)/C=C/c1ccc([N+](=O)[O-])cc1 was tested, and the T/C [1] was 100 % of control, the T/C [2] was 100 % of control and the T/C [5] was 105 % of control.

For c1ccc(C2SCCCS2)cc1, the T/C (endpoint: mean survival time, dose: 100.0 mg/kg/injection, schedule: Q04DX003 (ip), vehicle: other) was 101 % of control, the T/C (endpoint: mean survival time, dose: 200.0 mg/kg/injection, schedule: Q04DX003 (ip), vehicle: other) was 97 % of control and the T/C (endpoint: mean survival time, dose: 400.0 mg/kg/injection, schedule: Q04DX003 (ip), vehicle: other) was 101 % of control.

With CCCCCCCNC(=O)Nc1cc([N+](=O)[O-])ccc1C the T/C [6] was 93 % of control, the T/C [7] was 94 % of control and the T/C [8] was 98 % of control.

For Cc1c2ccccc2c(CN2CC(O)CC2C(=O)O)c2ccccc12 (centres undefined), the T/C [6] was 94 % of control, the T/C [7] was 93 % of control and the T/C [8] was 87 % of control.

C[n+]1c(-c2cccc3ccccc23)c2cc(N)ccc2c2ccccc21 was tested, and the T/C [9] was 106 % of control, the T/C (endpoint: mean survival time, dose: 1.56 mg/kg/injection, schedule: Q01DX009 (ip), vehicle: saline) was 108 % of control and the T/C [10] was 103 % of control. The T/C (endpoint: mean survival time, dose: 3.12 mg/kg/injection, schedule: Q01DX009 (ip), vehicle: saline) was 118 % of control, the T/C [11] was 111 % of control and the T/C (endpoint: mean survival time, dose: 3.5 mg/kg/injection, schedule: Q01DX009 (ip), vehicle: water) was 104 % of control. For the same compound, the T/C (endpoint: mean survival time, dose: 5.3 mg/kg/injection, schedule: Q01DX009 (ip), vehicle: water) was 106 % of control, the T/C (endpoint: mean survival time, dose: 6.25 mg/kg/injection, schedule: Q01DX009 (ip), vehicle: saline) was 106 % of control and the T/C [12] was 97 % of control and 110 % of control. For the same compound, the T/C (endpoint: mean survival time, dose: 8.0 mg/kg/injection, schedule: Q01DX009 (ip), vehicle: water) was 114 % of control, the T/C (endpoint: mean survival time, dose: 12.0 mg/kg/injection, schedule: Q01DX009 (ip), vehicle: water) was 121 % of control and the T/C (endpoint: mean survival time, dose: 12.5 mg/kg/injection, schedule: Q01DX009 (ip), vehicle: saline) was 116 % of control. For the same compound, the T/C [13] was 119 % of control and 122 % of control, the T/C (endpoint: mean survival time, dose: 18.0 mg/kg/injection, schedule: Q01DX009 (ip), vehicle: water) was 112 % of control and the T/C (endpoint: mean survival time, dose: 25.0 mg/kg/injection, schedule: Q01DX009 (ip), vehicle: saline) was 93 % of control.

O=C1NC(=O)C2(CCN(CC3COc4ccccc4O3)CC2)N1c1ccccc1 (centres undefined) was tested, and the T/C [3] was 96 % of control, the T/C [4] was 101 % of control and the T/C [14] was 96 % of control.

In the case of CCc1ccc(NC(=O)c2cccc(Cl)c2)cc1, the T/C [1] is reported as 93 % of control, the T/C [6] is reported as 95 % of control and the T/C [2] is reported as 109 % of control. For the same compound, the T/C [7] was 98 % of control, the T/C [5] was 98 % of control and the T/C [8] was 98 % of control.

For C=CC1=NC(C)(C)CC(C)O1 (centres undefined), the T/C [9] was 104 % of control, the T/C [10] was 102 % of control and the T/C [11] was 105 % of control. For the same compound, the T/C [12] was 104 % of control and the T/C [13] was 100 % of control.

CCC(c1ccc(O)c(C2CCCCC2)c1)C(CC)c1ccc(OC(=O)c2ccccc2)c(C2CCCCC2)c1 (centres undefined) was tested, and the T/C (endpoint: mean survival time, dose: 75.0 mg/kg/injection, schedule: Q01DX001 (ip), vehicle: saline) was 109 % of control, the T/C (endpoint: mean survival time, dose: 150.0 mg/kg/injection, schedule: Q01DX001 (ip), vehicle: saline) was 100 % of control and the T/C (endpoint: mean survival time, dose: 300.0 mg/kg/injection, schedule: Q01DX001 (ip), vehicle: saline) was 106 % of control.

With NCCCNCCCCNCCCN the T/C (endpoint: median survival time, dose: 24.75 mg/kg/injection, schedule: Q04DX003 (ip), vehicle: saline) was 101 % of control and the T/C (endpoint: median survival time, dose: 49.5 mg/kg/injection, schedule: Q04DX003 (ip), vehicle: saline) was 107 % of control.

[N-]=[N+]=NC(=O)c1cnc(OCc2ccccc2)nc1N was tested, and the T/C [4] was 91 % of control, the T/C [1] was 93 % of control and the T/C [14] was 96 % of control. For the same compound, the T/C [2] was 96 % of control, the T/C (endpoint: mean survival time, dose: 400.0 mg/kg/injection, schedule: Q01DX001 (ip), vehicle: saline with Tween-80) was 94 % of control and the T/C [5] was 93 % of control.

O=P1(N(CCCl)CCCl)NCCCO1.[Cl][Sb]([Cl])[Cl] (centres undefined) was tested, and the T/C (endpoint: mean survival time, dose: 31.25 mg/kg/injection, schedule: Q01DX001 (ip), vehicle: olive oil, sesame oil, peanut oil) was 109 % of control, the T/C (endpoint: mean survival time, dose: 62.5 mg/kg/injection, schedule: Q01DX001 (ip), vehicle: olive oil, sesame oil, peanut oil) was 113 % of control and the T/C (endpoint: mean survival time, dose: 125.0 mg/kg/injection, schedule: Q01DX001 (ip), vehicle: olive oil, sesame oil, peanut oil) was 109 % of control.

With COC(=O)C1CCC(N(C)S(=O)(=O)c2ccc(C)cc2)CC1 (centres undefined) the T/C (endpoint: mean survival time, dose: 100.0 mg/kg/injection, schedule: Q01DX009 (ip), vehicle: Klucel (hydroxypropylcellulose) (HPC)) was 100 % of control, the T/C (endpoint: mean survival time, dose: 200.0 mg/kg/injection, schedule: Q01DX009 (ip), vehicle: Klucel (hydroxypropylcellulose) (HPC)) was 96 % of control and the T/C (endpoint: mean survival time, dose: 400.0 mg/kg/injection, schedule: Q01DX009 (ip), vehicle: Klucel (hydroxypropylcellulose) (HPC)) was 92 % of control.

O=NN(CCF)C(=O)NC1CCCCC1 was tested, and the T/C (endpoint: median survival time, dose: 2.5 mg/kg/injection, schedule: Q01DX001 (ip), vehicle: saline) was 101 % of control, the T/C (endpoint: median survival time, dose: 2.5 mg/kg/injection, schedule: Q04DX002 (ip), vehicle: saline) was 93 % of control and the T/C (endpoint: median survival time, dose: 5.0 mg/kg/injection, schedule: Q01DX001 (ip), vehicle: saline) was 101 % of control. The T/C (endpoint: median survival time, dose: 5.0 mg/kg/injection, schedule: Q04DX002 (ip), vehicle: saline) was 106 % of control, the T/C (endpoint: median survival time, dose: 10.0 mg/kg/injection, schedule: Q01DX001 (ip), vehicle: saline) was 102 % of control and the T/C (endpoint: median survival time, dose: 10.0 mg/kg/injection, schedule: Q04DX002 (ip), vehicle: saline) was 120 % of control and 223 % of control. The T/C (endpoint: median survival time, dose: 20.0 mg/kg/injection, schedule: Q01DX001 (ip), vehicle: saline) was 103 % of control, the T/C (endpoint: median survival time, dose: 20.0 mg/kg/injection, schedule: Q04DX002 (ip), vehicle: saline) was 365 % of control and the T/C (endpoint: median survival time, dose: 40.0 mg/kg/injection, schedule: Q01DX001 (ip), vehicle: saline) was 120 % of control. For the same compound, the T/C (endpoint: median survival time, dose: 40.0 mg/kg/injection, schedule: Q04DX002 (ip), vehicle: saline) was 216 % of control and 365 % of control, the T/C (endpoint: median survival time, dose: 80.0 mg/kg/injection, schedule: Q01DX001 (ip), vehicle: saline) was 168 % of control and the T/C (endpoint: median survival time, dose: 80.0 mg/kg/injection, schedule: Q04DX002 (ip), vehicle: saline) was 207 % of control and 361 % of control.

With O=c1[nH]cnc2c1ncn2C1CC(CO)C(O)OC1O (centres undefined) the T/C [15] was 164 % of control and the T/C [16] was 188 % of control.

In the case of CC(=O)OC1C(C)OC(n2ncc(=O)[nH]c2=O)C(OC(C)=O)C1OC(C)=O (centres undefined), the T/C (endpoint: mean survival time, dose: 12.5 mg/kg/injection, schedule: Q01DX005 (ip), vehicle: distilled water + Tween-80) is reported as 103 % of control, the T/C (endpoint: mean survival time, dose: 25.0 mg/kg/injection, schedule: Q01DX005 (ip), vehicle: distilled water + Tween-80) is reported as 100 % of control and the T/C (endpoint: mean survival time, dose: 50.0 mg/kg/injection, schedule: Q01DX005 (ip), vehicle: distilled water + Tween-80) is reported as 103 % of control. The T/C (endpoint: mean survival time, dose: 100.0 mg/kg/injection, schedule: Q01DX005 (ip), vehicle: distilled water + Tween-80) was 103 % of control and the T/C (endpoint: mean survival time, dose: 200.0 mg/kg/injection, schedule: Q01DX005 (ip), vehicle: distilled water + Tween-80) was 107 % of control.

In the case of CC(=O)NCC(O)(C1CC1)C1CC1, the T/C [15] is reported as 102 % of control, the T/C [16] is reported as 98 % of control and the T/C (endpoint: mean survival time, dose: 400.0 mg/kg/injection, schedule: Q04DX002 (ip), vehicle: saline) is reported as 94 % of control.

Brc1ccccc1-c1ccccc1-c1ccccc1 was tested, and the T/C [1] was 106 % of control, the T/C [2] was 101 % of control and the T/C [5] was 101 % of control.

Source: PubChem BioAssay AID256 (DTP/NCI, 2004)
